ChEMBL document CHEMBL5096200, “A short survey of dengue protease inhibitor development in the past 6 years (2015-2020) with an emphasis on similarities between DENV and SARS-CoV-2 proteases” (Bioorg Med Chem, 2021)
Where a name gives a salt, the structure may show the parent alone. Positions of bridges follow the written chain, without caps; N, C: chain ends. Non-standard residues stand in square brackets, D forms with d. Residues, ends and D or L forms follow the SMILES beside them. NBnAla = C[C@H](NCc1ccccc1)C(=O)O

How the values were obtained:
Genome polyprotein [1] = biological target: T1, Genome polyprotein (dengue virus type 2, UniProt P29990); assay: Inhibition of DENV2 NS2B-NS3 protease
Genome polyprotein [2] = biological target: T1, Genome polyprotein; assay: Binding affinity to DENV2 NS2B/NS3 protease assessed as inhibition constant
[3] = Permeability of the compound at pH 7.4; format: ADME; conditions: PAMPA, read-out: permeability
[4] = Inhibition of DENV2 pro; design: species or system dengue virus type 2
dengue virus type 2 [5] = assay: Antiviral activity against Dengue virus 2 infected in african green monkey Vero cells assessed as reduction in viral titer; format: functional, organism-based
[6] = Binding affinity to wildtype DENV3 protease assessed as inhibition constant using [Ac-[D-EDANS]KRRSWP[K-DABCYL]-AMIDE] as substrate by FRET-based enzymatic assay; design: species or system dengue virus type 3
Genome polyprotein [7] = biological target: T1, Genome polyprotein; assay: Inhibition of DENV2 NS2B-NS3 protease using Boc-Gly-Arg-Arg-7-amino-4-methylcoumarin as substrate incubated for 10 mins by fluorometric assay
dengue virus type 2 [8] = assay: Antiviral activity against DENV2; format: functional, organism-based
Genome polyprotein [9] = biological target: T1, Genome polyprotein; assay: Inhibition of DENV2 NS2B-NS3 protease using […] as substrate preincubated for 10 mins followed by substrate addition and incubated for 60 mins by fluorescence spectroscopy assay

T1 sequence (P29990 1346-1475 limits assumed): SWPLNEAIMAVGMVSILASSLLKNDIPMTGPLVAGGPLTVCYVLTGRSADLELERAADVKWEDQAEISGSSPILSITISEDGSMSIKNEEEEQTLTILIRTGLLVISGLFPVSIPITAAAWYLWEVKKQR
T1 sequence (P29990 1476-2093 limits assumed): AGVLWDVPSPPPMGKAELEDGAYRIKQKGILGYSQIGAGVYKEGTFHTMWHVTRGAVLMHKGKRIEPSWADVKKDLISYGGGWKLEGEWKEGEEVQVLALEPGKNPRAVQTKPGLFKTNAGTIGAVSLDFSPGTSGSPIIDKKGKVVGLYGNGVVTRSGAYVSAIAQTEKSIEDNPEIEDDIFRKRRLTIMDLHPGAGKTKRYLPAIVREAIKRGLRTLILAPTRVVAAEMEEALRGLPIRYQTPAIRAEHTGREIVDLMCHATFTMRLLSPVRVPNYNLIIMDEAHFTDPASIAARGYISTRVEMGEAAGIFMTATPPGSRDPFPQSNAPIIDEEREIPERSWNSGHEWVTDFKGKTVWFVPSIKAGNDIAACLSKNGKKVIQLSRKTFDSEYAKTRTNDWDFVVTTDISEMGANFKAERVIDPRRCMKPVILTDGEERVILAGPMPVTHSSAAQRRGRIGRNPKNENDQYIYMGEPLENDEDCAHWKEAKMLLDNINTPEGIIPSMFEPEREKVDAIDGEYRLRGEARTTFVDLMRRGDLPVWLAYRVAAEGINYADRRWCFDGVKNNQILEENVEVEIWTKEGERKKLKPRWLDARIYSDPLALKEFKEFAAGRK

## CCN1/C(=C/C=C/c2oc3ccc4ccccc4c3[n+]2CC)Oc2ccc3ccccc3c21
Genome polyprotein [1]
  IC50: 27 µM

## N#C/C(=C\c1ccc(O)cc1)C(N)=O
Genome polyprotein [2]
  Ki: 35.7 µM
Genome polyprotein [1]
  Ki: 35.7 µM
[3]
  Papp: 8.4 ×10⁻⁶ cm/s

## N=C(N)Nc1ccc(OC(=O)c2ccc(NC(=N)N)cc2)cc1
Genome polyprotein [2]
  Ki: 2 µM
Genome polyprotein [1]
  Ki: 2 µM

## N=C(N)NCCC[C@H](NC(=O)c1nccs1)C(=O)N[C@@H](CCCCN)C(=O)N[C@@H](C(N)=O)c1ccc(OCc2ccc(C(F)(F)F)cc2)cc1
[4]
  IC50: 0.018 µM

## N=C(N)N/N=C/c1ccc(/C=N/NC(=N)N)cc1
Genome polyprotein [2]
  Ki: 44 µM
Genome polyprotein [1]
  Ki: 44 µM

## O=C(O)c1cc2sc(NC(=O)c3ccccc3Sc3ccc(C(F)(F)F)cc3)nc2cc1O
Dengue virus type 2 [5]
  EC50: 0.9 µM

## O=C(Nc1nc2cc(O)c(O)cc2s1)c1ccccc1Sc1ccc(C(F)(F)F)cc1
[4]
  IC50: 3.6 µM
Dengue virus type 2 [5]
  EC50: > 3 µM

## CC[C@H](C)[C@@H]1NC(=O)[C@H](CCCNC(=N)N)NC(=O)[C@H](C(C)C)NC(=O)[C@H](CCCNC(=N)N)NC(=O)[C@@H](NC(=O)[C@@H]2CCCN2)CSSC[C@@H](C(=O)N[C@H](C)C(=O)O)NC(=O)CNC(=O)CNC(=O)[C@H](CC(=O)O)NC1=O
[6]
  Ki: 35.8 µM

## O=C(Nc1nc2ccc([N+](=O)[O-])cc2s1)c1ccccc1Sc1ccc(C(F)(F)F)cc1
Dengue virus type 2 [5]
  EC50: 0.1 µM
Genome polyprotein [7]
  IC50: 22 µM

## CC[C@H](C)[C@@H]1NC(=O)[C@H](CCCNC(=N)N)NC(=O)[C@H](C)NC(=O)[C@H](CCCNC(=N)N)NC(=O)[C@@H](NC(=O)[C@@H]2CCCN2)CSSC[C@@H](C(=O)N[C@H](C)C(=O)O)NC(=O)CNC(=O)CNC(=O)[C@H](CC(=O)O)NC1=O
[6]
  Ki: 69.3 µM

## N=C(N)NCCC[C@@H](NC1NC(=O)C(N[C@H](CCCCN)C(=O)O)NC(=O)C(N2CCC[C@@H]2C(=O)O)NC(=O)C(N[C@H](Cc2ccccc2)C(=O)O)NC(=O)C(N[C@H](CO)C(=O)O)NC(=O)C(N[C@@H](Cc2ccccc2)C(=O)O)NC(=O)C(N[C@@H](CO)C(=O)O)NC(=O)[C@H](CCCCN)NC1=O)C(=O)O (stereo partly drawn)
[4]
  IC50: 0.95 µM

## Cc1c(O)cccc1C(=O)NC(CSc1ccccc1)C(O)CN1CC2CCCCC2C[C@H]1C(=O)NC(C)(C)C (stereo partly drawn)
Dengue virus type 2 [8]
  EC50: 3.5 µM

## COc1cc2nc(NC(=O)c3ccccc3Sc3ccc(C(F)(F)F)cc3)sc2cc1OC
Dengue virus type 2 [5]
  EC50: 2.5 µM

## CC[C@H](C)[C@@H]1NC(=O)[C@H](CCCNC(=N)N)NC(=O)[C@H](C(C)C)NC(=O)[C@H](CCCNC(=N)N)NC(=O)[C@@H](NC(=O)[C@@H]2CCCN2)CSSC[C@@H](C(=O)N[C@H](C)C(=O)O)NC(=O)CNC(=O)CNC(=O)[C@H](Cc2ccc(O)cc2)NC1=O
[6]
  Ki: 25.6 µM

## O=C(Nc1nc2ccc([N+](=O)[O-])cc2s1)c1ccccc1Sc1ccc([N+](=O)[O-])cc1
Genome polyprotein [7]
  IC50: 34 µM

## CC[C@H](C)[C@@H]1NC(=O)[C@H](Cc2c[nH]c3ccccc23)NC(=O)[C@H](C)NC(=O)[C@H](CCCNC(=N)N)NC(=O)[C@@H](NC(=O)[C@@H]2CCCN2)CSSC[C@@H](C(=O)N[C@H](C)C(=O)O)NC(=O)CNC(=O)CNC(=O)[C@H](Cc2ccc(O)cc2)NC1=O
[6]
  Ki: 145 µM

## Oc1c(C(Nc2ccccc2)c2ccccn2)ccc2cccnc12 (stereo not drawn)
Genome polyprotein [2]
  Ki: 17 µM
Genome polyprotein [1]
  Ki: 17 µM
[3]
  Papp: 4.12 ×10⁻⁶ cm/s

## O=C(Nc1nc2ccc([N+](=O)[O-])cc2s1)c1cccc(Sc2ccc([N+](=O)[O-])cc2)c1
Dengue virus type 2 [5]
  EC50: 0.3 µM
Genome polyprotein [7]
  IC50: 26 µM

## COc1ccc(C(=O)CN2C/C(=C/c3ccc([N+](=O)[O-])cc3)C(=O)/C(=C\c3ccc([N+](=O)[O-])cc3)C2)cc1
Genome polyprotein [9]
  IC50: 16.2 µM

## O=C1/C(=C\c2ccc([N+](=O)[O-])cc2)CN(CC(=O)c2ccc(F)cc2)C/C1=C/c1ccc([N+](=O)[O-])cc1
Genome polyprotein [9]
  IC50: 15.2 µM

## O=C1OC2(c3ccccc31)c1cc(I)c(O)c(I)c1OC1C(I)=C(O)C(I)=CC12 (stereo not drawn)
Dengue virus type 2 [8]
  EC50: 1.2 µM

## O=[N+]([O-])c1ccc(N=Nc2ccc(O)c3ccccc23)c([N+](=O)[O-])c1
Genome polyprotein [2]
  Ki: 15 µM
Genome polyprotein [1]
  Ki: 15 µM

## CC[C@H](C)[C@@H]1NC(=O)[C@H](Cc2c[nH]c3ccccc23)NC(=O)[C@H](C)NC(=O)[C@H](CCCNC(=N)N)NC(=O)[C@@H](NC(=O)[C@@H]2CCCN2)CSSC[C@@H](C(=O)N[C@H](CCCNC(=N)N)C(=O)O)NC(=O)CNC(=O)CNC(=O)[C@H](Cc2ccc(O)cc2)NC1=O
[6]
  Ki: 19.7 µM

## CC[C@H](C)[C@@H]1NC(=O)[C@H](CCCNC(=N)N)NC(=O)[C@H](C)NC(=O)[C@H](CCCNC(=N)N)NC(=O)[C@@H](NC(=O)c2ccccc2)CSSC[C@@H](C(=O)N[C@H](C)C(=O)O)NC(=O)CNC(=O)CNC(=O)[C@H](Cc2ccc(O)cc2)NC1=O
[6]
  Ki: 33.2 µM

## N=C(N)NCCC[C@@H]1NC(=O)[C@H](CCCCN)NC(=O)CNC(=O)[C@@H](N)CSSC[C@@H](C(=O)O)NC(=O)[C@H](CO)NC(=O)[C@H](CCCCN)NC1=O (H-CGKRKSC-OH; disulfide 1-7)
Genome polyprotein [2]
  Ki: 1.4 µM
Genome polyprotein [1]
  Ki: 1.4 µM

## CC[C@H](C)[C@@H]1NC(=O)[C@H](CCCNC(=N)N)NC(=O)[C@H](C)NC(=O)[C@H](CCCNC(=N)N)NC(=O)[C@@H](N)CSSC[C@@H](C(=O)N[C@@H](C)C(=O)O)NC(=O)CNC(=O)CNC(=O)[C@H](Cc2ccc(O)cc2)NC(=O)CNC1=O (H-CRARIGYGGCA-OH; disulfide 1-10)
[6]
  Ki: 145 µM

## CC[C@H](C)[C@@H]1NC(=O)[C@H](CCCNC(=N)N)NC(=O)[C@H](C)NC(=O)[C@H](CCCCN)NC(=O)[C@@H](NC(=O)[C@@H]2CCCN2)CSSC[C@@H](C(=O)N[C@@H](C)C(=O)O)NC(=O)CNC(=O)CNC(=O)[C@H](Cc2ccc(O)cc2)NC(=O)CNC1=O (H-PCKARIGYGGCA-OH; disulfide 2-11)
[6]
  Ki: 377 µM

## CC[C@H](C)[C@@H]1NC(=O)[C@H](CCCNC(=N)N)NC(=O)[C@H](C)NC(=O)[C@H](CCCCN)NC(=O)[C@@H](NC(=O)[C@@H]2CCCN2)CSSC[C@@H](C(=O)N[C@@H](C)C(=O)O)NC(=O)CNC(=O)CNC(=O)[C@H](Cc2ccc(O)cc2)NC(=O)CNC(=O)CNC(=O)[C@H]([C@@H](C)CC)NC1=O (H-PCKARIIGGYGGCA-OH; disulfide 2-13)
[6]
  Ki: 678 µM

## CC[C@H](C)[C@@H]1NC(=O)[C@H](CCCNC(=N)N)NC(=O)[C@H](C)NC(=O)[C@H](CCCCN)NC(=O)[C@@H](NC(=O)[C@@H]2CCCN2)CSSC[C@@H](C(=O)N[C@@H](CCCNC(=N)N)C(=O)O)NC(=O)CNC(=O)CNC(=O)[C@H](Cc2ccc(O)cc2)NC(=O)CNC(=O)CNC(=O)[C@H]([C@@H](C)CC)NC1=O (H-PCKARIIGGYGGCR-OH; disulfide 2-13)
[6]
  Ki: 232 µM

## CC[C@H](C)[C@@H]1NC(=O)[C@H](CCCNC(=N)N)NC(=O)[C@H](C)NC(=O)[C@H](CCCCN)NC(=O)[C@@H](NC(=O)[C@@H]2CCCN2)CSSC[C@@H](C(=O)N[C@@H](C)C(=O)O)NC(=O)CNC(=O)CNC(=O)[C@H](Cc2ccc(O)cc2)NC1=O (H-PCKARIYGGCA-OH; disulfide 2-10)
[6]
  Ki: 14.5 µM

## CC[C@H](C)[C@@H]1NC(=O)[C@H](CCCNC(=N)N)NC(=O)[C@H](C)NC(=O)[C@H](CCCNC(=N)N)NC(=O)[C@@H](NC(=O)[C@@H]2CCCN2)CSSC[C@@H](C(=O)N[C@@H](C)C(=O)O)NC(=O)CNC1=O (H-PCRARIGCA-OH; disulfide 2-8)
[6]
  Ki: 101 µM

## CC[C@H](C)[C@@H]1NC(=O)[C@H](CCCNC(=N)N)NC(=O)[C@H](C)NC(=O)[C@H](CCCNC(=N)N)NC(=O)[C@@H](NC(=O)[C@@H]2CCCN2)CSSC[C@@H](C(=O)N[C@@H](C)C(=O)O)NC(=O)CNC(=O)CNC1=O (H-PCRARIGGCA-OH; disulfide 2-9)
[6]
  Ki: 780 µM

## CC[C@H](C)[C@@H]1NC(=O)[C@H](CCCNC(=N)N)NC(=O)[C@H](C)NC(=O)[C@H](CCCNC(=N)N)NC(=O)[C@@H](NC(=O)[C@@H]2CCCN2)CSSC[C@@H](C(=O)N[C@@H](CCCNC(=N)N)C(=O)O)NC(=O)CNC(=O)CNC1=O (H-PCRARIGGCR-OH; disulfide 2-9)
[6]
  Ki: 29.7 µM

## CC[C@H](C)[C@@H]1NC(=O)[C@H](CCCNC(=N)N)NC(=O)[C@H](C)NC(=O)[C@H](CCCNC(=N)N)NC(=O)[C@@H](NC(=O)[C@@H]2CCCN2)CSSC[C@@H](C(=O)N[C@@H](C)C(=O)O)NC(=O)CNC(=O)[C@H](Cc2ccc(O)cc2)NC1=O (H-PCRARIYGCA-OH; disulfide 2-9)
[6]
  Ki: 468 µM

## CC[C@H](C)[C@@H]1NC(=O)[C@H](CCCNC(=N)N)NC(=O)[C@H](C)NC(=O)[C@H](CCCNC(=N)N)NC(=O)[C@@H](NC(=O)[C@@H]2CCCN2)CSSC[C@@H](C(=O)N[C@@H](C)C(=O)O)NC(=O)CNC(=O)CNC(=O)[C@H](Cc2ccc(O)cc2)NC1=O (H-PCRARIYGGCA-OH; disulfide 2-10)
[6]
  Ki: 966 µM

## C[C@H](NCc1ccccc1)C(=O)N[C@@H](CCCCN)C(=O)N[C@@H](CCCNC(=N)N)C(=O)N[C@@H](CCCNC(=N)N)C(=O)O (H-[NBnAla]KRR-OH)
Genome polyprotein [2]
  Ki: 5.3 µM
Genome polyprotein [1]
  Ki: 5.3 µM

## CCCCC(CC)CN=C(N)N=C(N)NCCCCCCNC(N)=NC(N)=NCC(CC)CCCC (stereo not drawn) [ALEXIDINE HYDROCHLORIDE]
Genome polyprotein [1]
  Ki: 41 µM

## COc1cc(O)c(C(=O)[C@@H]2[C@H](CC=C(C)C)C(C)=CC[C@H]2c2ccccc2)c(O)c1 [PANDURATIN A]
Genome polyprotein [9]
  IC50: 57.3 µM

## CO[C@H]1C[C@H](O[C@@H]2/C(C)=C/C[C@@H]3C[C@@H](C[C@]4(CC[C@H](C)[C@@H](C5CCCCC5)O4)O3)OC(=O)[C@@H]3C=C(C)/C(=N/O)[C@H]4OC/C(=C\C=C\[C@@H]2C)[C@]43O)O[C@@H](C)[C@@H]1O [SELAMECTIN]
Genome polyprotein [2]
  Ki: 63 µM

## IVERMECTIN
Genome polyprotein [2]
  Ki: 79 µM
Genome polyprotein [1]
  Ki: 79 µM
